According to patent publication US6750222B2, “Substituted phenyl derivatives” (Bayer CropScience GmbH, priority 2001, dated 2004):

Legend:
[1] = system: Sinapis alba, Echinochloa crus-galli, Lolium multiflorum, Chrysanthemum segetum, Avena sativa, Stellaria media, Setaria spp., Abutilon theophrasti, Amaranthus …; assay: Post-emergence effect on weeds (greenhouse pot test); format: in vivo, monocotyledonous and dicotyledonous weeds; conditions: application rate of 2 kg and less of active substance per hectare; treated at three-leaf stage; scored visually after about 3 to 4 weeks by comparison with untreated controls
Protocol: 2. Post-Emergence Effect on Weeds
Seeds or rhizome pieces of monocotyledonous and dicotyledonous weeds were placed in sandy loam soil in plastic pots, covered with soil and grown in a greenhouse under good growth conditions. Three weeks after sowing, the test plants were treated at the three-leaf stage. The compounds according to the invention which were formulated as wettable powders or emulsion concentrates were sprayed, at various dosages, onto the green parts of the plants at an application rate of 600 to 800 l of water/ha (converted). After the test plants had remained in the greenhouse for about 3 to 4 weeks under ideal growth conditions, the effect of the preparations was scored visually by comparison with untreated controls. The agents according to the invention also have good herbicidal activity post-emergence against a broad spectrum of economically important weed grasses and broad-leafed weeds.

[2] = system: Sinapis alba, Chrysanthemum segetum, Avena sativa, Stellaria media, Echinochloa crus-galli, Lolium multiflorum, Setaria spp., Abutilon theophrasti, Amaranthus …; assay: Pre-emergence effect on weeds (greenhouse pot test); format: in vivo, monocotyledonous and dicotyledonous weed plants; conditions: application rate of 2 kg and less of active substance per hectare; scored visually after 3 to 4 weeks by comparison with untreated controls
Text: 1. Pre-Emergence Effect on Weeds
Seeds or rhizome pieces of monocotyledonous and dicotyledonous weed plants were placed in sandy loam soil in cardboard pots and covered with soil. The compounds according to the invention which were formulated in the form of wettable powders or emulsion concentrates were then applied to the surface of the soil cover in the form of aqueous suspensions or emulsions at an application rate of 600 to 800 l of water/ha (converted), in various dosages.
After the treatment, the pots were placed in a greenhouse and kept under good growth conditions for the weeds. After the test plants had emerged, the damage to the plants or the negative effect on the emergence was scored visually after a test period of 3 to 4 weeks by comparison with untreated controls. As shown by the test results, compounds according to the invention have good herbicidal pre-emergence activity against a broad spectrum of weed grasses and broad-leafed weeds.

Compound | melting point [°C] | herbicidal activity against harmful plants post-emergence [1] | herbicidal activity against harmful plants pre-emergence [2]
Cn1nc(C(F)(F)F)cc1Oc1cc(C#N)cc(Oc2cc(C(F)(F)F)nn2C)c1 [Chemical Example 1, 3,5-Bis-(1-methyl-3-trifluoromethylpyrazol-5-yloxy)benzonitrile] | 139 | – | –
Cn1nc(C(F)(F)F)cc1Oc1cc(F)cc(C#N)c1 [Chemical Example 2, 3-Fluoro-5-(1-methyl-3-trifluoromethylpyrazol-5-yloxy)benzonitrile] | 84 | – | –
Cn1nc(C(F)(F)F)cc1Oc1cc(C#N)cc(-n2ccc(C(F)(F)F)n2)c1 [Chemical Example 5, 3-(1-Methyl-3-trifluoromethylpyrazol-5-yloxy)-5-(3-trifluoromethylpyrazol-1-yl)benzonitrile] | 116 to 117 | – | –
Cn1nc(C(F)(F)F)cc1Oc1cc(C#N)cc(Oc2cccc(C(F)(F)F)c2)c1 [Example 62a] | – | very good herbicidal activity | very good herbicidal activity
N#Cc1cc(Oc2cccc(C(F)(F)F)c2)cc(Oc2cccc(C(F)(F)F)c2)c1 [Example 62b] | – | very good herbicidal activity | very good herbicidal activity
N#Cc1cc(Oc2ccnc(C(F)(F)F)c2)cc(Oc2ccnc(C(F)(F)F)c2)c1 [Example 73d] | – | very good herbicidal activity | very good herbicidal activity
N#Cc1cc(Oc2csc(C(F)(F)F)c2)cc(Oc2csc(C(F)(F)F)c2)c1 [Example 74c] | – | very good herbicidal activity | very good herbicidal activity
Cn1nc(C(F)(F)F)cc1Oc1cc(C#N)cc(Oc2cc(C(F)(F)F)n(C)n2)c1 [Example 75a] | – | very good herbicidal activity | very good herbicidal activity
Cn1nc(C(F)(F)F)cc1Oc1cc(C#N)cc(Oc2cc(C(F)(F)F)nn2C)c1 [Example 76a] | – | very good herbicidal activity | very good herbicidal activity
Cn1nc(C(F)(F)F)cc1Oc1cc(Oc2cc(C(F)(F)F)nn2C)cc(C(N)=O)c1 [Example 77a] | – | very good herbicidal activity | very good herbicidal activity
Cn1nc(C(F)(F)F)cc1Oc1cc(Oc2cc(C(F)(F)F)nn2C)cc([N+](=O)[O-])c1 [Example 397a] | – | very good herbicidal activity | very good herbicidal activity
Cn1nc(C(F)(F)F)cc1Oc1cc(F)cc(C#N)c1 [Example 1136a] | – | very good herbicidal activity | very good herbicidal activity
N#Cc1cc(F)cc(Oc2csc(C(F)(F)F)c2)c1 [Example 1136c] | – | very good herbicidal activity | very good herbicidal activity
Cn1nc(C(F)(F)F)cc1Oc1cc(C#N)cc(C#N)c1 [Example 1140a] | – | very good herbicidal activity | very good herbicidal activity
N#Cc1cc(C#N)cc(Oc2csc(C(F)(F)F)c2)c1 [Example 1140c] | – | very good herbicidal activity | very good herbicidal activity
N#Cc1cc(C#N)cc(Oc2ccnc(C(F)(F)F)c2)c1 [Example 1140d] | – | very good herbicidal activity | very good herbicidal activity
Cn1nc(C(F)(F)F)cc1Oc1cc(F)cc([N+](=O)[O-])c1 [Example 1156a] | – | very good herbicidal activity | very good herbicidal activity
Cn1nc(C(F)(F)F)cc1Oc1cc(C#N)cc(-n2ccc(C(F)(F)F)n2)c1 [Example 1161a] | – | very good herbicidal activity | very good herbicidal activity
CC(C)OCCOc1cc(C#N)cc(Oc2cc(C(F)(F)F)nn2C)c1 [Example 1169a] | – | very good herbicidal activity | very good herbicidal activity
CCOCCOCCOc1cc(C#N)cc(Oc2cc(C(F)(F)F)nn2C)c1 [Example 1171a] | – | very good herbicidal activity | very good herbicidal activity
COCCCOc1cc(C#N)cc(Oc2cc(C(F)(F)F)nn2C)c1 [Example 1177a] | – | very good herbicidal activity | very good herbicidal activity
Cn1nc(C(F)(F)F)cc1Oc1cc(C#N)cc(OCC2CCCO2)c1 (stereo not shown) [Example 1180a] | – | very good herbicidal activity | very good herbicidal activity
Cn1nc(C(F)(F)F)cc1Oc1cc(C#N)cc(OCC2COC(C)(C)O2)c1 (stereo not shown) [Example 1182a] | – | very good herbicidal activity | very good herbicidal activity
